The text below walks through data of patent publication US20140358576A1, “SYSTEM AND METHOD FOR SURVEILLANCE AND EVALUATION OF SAFETY RISKS ASSOCIATED WITH MEDICAL INTERVENTIONS” (Adverse Events, Inc., priority 2013, published 2014).

The conditions of data set [1]: patients, post-approval; cited from earlier work.
The conditions of data set [2]: for Condition Seriousness: Example 1 component score, up to 8.68 points; for Literature / ROR / RxScore / Adverse Event Seriousness / Outcome: human.
The conditions of data set [3]: human.
Data set [4] is described as follows: RxScore calculation, Example 2 (FAERS components with event reporter Importance Weighting, no FDA warning/DEA schedule). The following applies: for RxScore: Example 2, maximum of 100 total points, Importance Weighting applied; for Condition Seriousness / Adverse Event Seriousness / Outcome: Example 2 component score; for Condition Seriousness: up to 12 points; for Adverse Event Seriousness: up to 27 points; for Outcome: up to 35 points, comorbidity adjusted; for ROR: Example 2 disproportionality measure component score, up to 20 points; for Report Priority: Example 2 report type component score, up to 6 points.

For data set [5] the following is noted: human. This is another data set of the same source.

Like-named read-outs stand apart in the source and are kept apart here.

For the compound `COCc1c(C(C)C)nc(C(C)C)c(/C=C/[C@@H](O)C[C@@H](O)CC(=O)O)c1-c1ccc(F)cc1` [Baycol], the “side effect that became evident after FDA approval” value (shortened to “side effect that became evident”) in data set [1] is “a fatal muscle-wasting syndrome”.

For `CC(C)CC(N(C)C)C1(c2ccc(Cl)cc2)CCC1` (stereo not drawn) [Meridia, Sibutramine], the “side effect that became evident” value in data set [1] is “severe cardiac complications”.

With `CS(=O)(=O)c1ccc(C2=C(c3ccccc3)C(=O)OC2)cc1` [Vioxx, rofecoxib], the “side effect that became evident” value in data set [1] was “increased heart attack and stroke rates”.

Consider `NCCCC(O)(P(=O)(O)O)P(=O)(O)O` [alendronate], for which, in data set [2], the “Condition Seriousness” value stood at 7.02 and the Literature is 5.0.

For `COc1ccccc1Oc1c(NS(=O)(=O)c2ccc(C(C)(C)C)cc2)nc(-c2ncccn2)nc1OCCO` [bosentan], in data set [2], the “Condition Seriousness” value was 2.07, the ROR was 3.81 and the RxScore was found to be 81.44.

As for `CS(=O)(=O)OCCCCOS(C)(=O)=O` [busulfan], in data set [2], the “Condition Seriousness” value is listed as 2.52, the “Adverse Event Seriousness” value amounted to 14.67, the Literature is listed as 12.5 and the Outcome turned out to be 15.73. In data set [2], this compound registered an ROR of 7.15 and a RxScore of 86.04.

Regarding `Nc1nc(F)nc2c1ncn2[C@@H]1O[C@H](CO)[C@@H](O)[C@@H]1O` [fludarabine], in data set [2], the “Adverse Event Seriousness” value turned out to be 12.69, the Literature worked out at 12.5, the Outcome came to 15.34 and the ROR is given as 4.60. Also, in data set [2], the RxScore was found to be 78.34.

For `CCC(=O)C(CC(C)N(C)C)(c1ccccc1)c1ccccc1` (stereo not drawn) [methadone], in data set [2], the Literature is 18.8 and the ROR was 4.85.

Consider `CCN(CC)CCNC(=O)c1cc(Cl)c(N)cc1OC` [metoclopramide], for which, in data set [2], the “Condition Seriousness” value was found to be 7.15, the “Adverse Event Seriousness” value is 4.46, the Literature amounted to 12.5 and the Outcome was 15.38. For the same compound, in data set [2], the ROR amounted to 12.97 and the RxScore stood at 78.08.

In the case of `COc1ccc2c3c1O[C@H]1C(=O)CC[C@@]4(O)[C@@H](C2)N(C)CC[C@]314` [oxycodone], in data set [2], the “Adverse Event Seriousness” value came to 14.17, the Literature is on record as 18.8, the Outcome stood at 14.81 and the ROR is listed as 5.51. The same compound returned a RxScore in data set [2] of 100.00. Moreover, the “disproportionality (ROR) score” value in data set [3] is reported as 268.

Turning to `CN1CC[C@]23c4c5ccc(O)c4O[C@H]2C(=O)CC[C@@]3(O)[C@H]1C5` [oxymorphone], in data set [2], the “Adverse Event Seriousness” value came to 6.21, the Literature is listed as 18.8, the Outcome is on record as 10.33 and the ROR is 3.98. Moreover, in data set [2], the RxScore worked out at 77.03.

For the compound `O=P(O)(O)C(O)(Cc1cccnc1)P(=O)(O)O` [risedronate sodium (Actonel), risedronate sodium], in data set [4], the RxScore is 46.13, the “Condition Seriousness” value was 2.40, the “Adverse Event Seriousness” value is recorded as 8.19 and the Outcome is listed as 13.15. Moreover, in data set [4], the ROR is reported as 4.82 and the “Report Priority” value is reported as 3.46.

As for `O=P(O)(O)C(O)(Cc1cccnc1)P(=O)(O)O` [risedronate sodium (Atelvia), risedronate sodium], in data set [4], the RxScore was 39.63, the “Condition Seriousness” value is 2.40, the “Adverse Event Seriousness” value was 4.60 and the Outcome is recorded as 12.68. In data set [4], the ROR is given as 5.34 and the “Report Priority” value is listed as 1.63.

Turning to `CN(CCOc1ccc(CC2SC(=O)NC2=O)cc1)c1ccccn1` (stereo not drawn) [rosiglitazone], in data set [2], the “Condition Seriousness” value turned out to be 3.77, the Literature is on record as 12.5, the Outcome is on record as 12.18 and the ROR is given as 5.53. Further, the RxScore in data set [2] stood at 79.48.

As for `C=CC[C@@H]1/C=C(\C)C[C@H](C)C[C@H](OC)[C@H]2O[C@@](O)(C(=O)C(=O)N3CCCC[C@H]3C(=O)O[C@H](/C(C)=C/[C@@H]3CC[C@@H](O)[C@H](OC)C3)[C@H](C)[C@@H](O)CC1=O)[C@H](C)C[C@@H]2OC` [tacrolimus], in data set [2], the “Condition Seriousness” value was 3.13, the “Adverse Event Seriousness” value is reported as 14.77, the Literature is recorded as 9.3 and the Outcome is listed as 15.75. Besides, in data set [2], the ROR amounted to 4.09 and the RxScore is given as 78.26.

With `CCCCC[C@H](O)CC[C@@H]1[C@H]2Cc3cccc(OCC(=O)O)c3C[C@H]2C[C@H]1O` [treprostinil], in data set [2], the “Condition Seriousness” value is 4.00 and the Literature is given as 0.0.

Take `O=P(O)(O)C(O)(Cn1ccnc1)P(=O)(O)O` [zoledronic acid (Reclast), zoledronic acid]: in data set [5], the “Adverse Event Seriousness” value is given as 12.33, the Outcome is recorded as 16.89, the ROR came out at 3.53 and the RxScore came to 53.23.

Turning to `O=P(O)(O)C(O)(Cn1ccnc1)P(=O)(O)O` [zoledronic acid (Zometa), zoledronic acid], in data set [5], the “Adverse Event Seriousness” value came out at 14.61, the Outcome was 7.55, the ROR is 10.08 and the RxScore is reported as 53.50.

Consider `NS(=O)(=O)Cc1noc2ccccc12` [zonisamide], for which, in data set [5], the “Adverse Event Seriousness” value stood at 11.03, the Outcome was found to be 13.71, the ROR is on record as 4.73 and the RxScore amounted to 49.83.
